Measurements taken from patent US10738028B2, “Spiro three-membered ring, spiro five-membered ring peptide deformylase inhibitor and use thereof in antibacteria and anti-tumor” (priority 2016, dated 2020).
≈ marks a conversion by molar mass, not a printed value. Where two headings read alike, the source gives them in different places.

Columns and labels:
Format in all cases: cell-based
[1] = tested on: HCT-116 colorectal cancer cell line; experiment: CCK-8 proliferation inhibition; conditions: Homo sapiens, HCT-116, 72 h, concentration of 30 μM, 72 hours, CCK-8
How it was run: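 Growth inhibition is read by CCK-8 (1:10 dilution) after 72 h of compound exposure. HCT-116 cells grow in McCoy's 5A containing 10% newborn bovine serum at 2000 cells/well, with 1‰ DMSO as vehicle control.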

[2] = tested on: methicillin-sensitive Staphylococcus aureus (MSSA); experiment: MIC, two-fold agar dilution (CLSI), clinical isolates
How it was run: (§1)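 Susceptibility was tested using CLSI two-fold agar dilution against the strains examined.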

[3] = tested on: methicillin-resistant Staphylococcus aureus (MRSA); experiment: as above
How it was run: as §1

[4] = tested on: Streptococcus pneoumoniae (SPN); experiment: as above
How it was run: as §1

[5] = tested on: Escherichia coli (including ESBLs, non-ESBLs); experiment: as above
How it was run: as §1

[6] = tested on: methicillin-resistant Staphylococcus epidermidis (MRSE); experiment: as above
How it was run: as §1

[7] = tested on: Enterococcus faecium (EFM); experiment: as above
How it was run: as §1

[8] = tested on: methicillin-sensitive Staphylococcus epidermidis (MSSE); experiment: as above
How it was run: as §1

[9] = tested on: Moraxella catarrhalis (BCA); experiment: as above
How it was run: as §1

[10] = tested on: Enterococcus faecalis (EFA); experiment: as above
How it was run: as §1

[11] = tested on: BEL-7402 liver cancer cell line; experiment: CCK-8 proliferation inhibition; conditions: concentration of 30 μM
Source text: (§2) 2. The present invention adopts the CCK-8 method to determine the proliferation inhibition effect of the spiro three-membered ring, spiro five-membered ring peptide deformylase inhibitor as described in Examples 1-80 against colorectal cancer cells, lung cancer cells, gastric cancer cells, liver cancer cells, and the like. […] The compound having the best activity synthesized in Example 64 was further tested for its inhibitory activity against other tumor cells including T cell leukemia, acute myeloid leukemia, cervical cancer, breast cancer, prostate cancer and osteosarcoma, and the like (see Table 7).
(§3) (1) HCT-116 colorectal cancer cell line, A549 lung cancer cell line, MGC-803 gastric cancer cell line, BEL-7402 liver cancer cell line, Jurkat T cell leukemia cell line, HL60 acute myeloid leukemia cell line, Hela cervical cancer cell line, MCF-7 breast cancer cell line, PC3 prostate cancer cell line and SAOS-2 osteosarcoma cell line were made into single cell suspension, 180 μL of which was inoculated into 96-well culture plate, which was cultured overnight in CO2 incubator (37° C., 5% CO2, 95% air).
(§4) (2) Each of the spiro three-membered ring, spiro five membered ring peptide deformylase inhibitors was dissolved in DMSO, and was further formulated into drug solution with required different final concentration using corresponding cell culture medium. The drug solutions were added to the above cells respectively (20 μL/well), with the control group added with 1‰ DMSO, and cultured in a CO2 incubator for 72 hours.
(§5) (3) After incubation for 72 hours, the culture solution was decanted, and 100 μL of 1:10 diluted CCK-8 solution was added.
(§6) Wherein, in step (1), the concentration of the single cell suspension was 2000 cells/well.
(§7) Wherein, in step (2), HCT-116 cells were cultured in McCoy's 5A medium (containing 10% newborn bovine serum, 1% double antibody); A549 and PC3 cells were cultured in F12 medium (containing 10% newborn bovine serum, 1% double antibody); MGC-803, BEL-7402, SAOS-2, Jurkat and HL60 cells were cultured in 1640 medium (containing 10% newborn bovine serum, 1% double antibody); and MCF-7 and Hela cells were cultured in DMEM high glucose medium (containing 10% newborn bovine serum, 1% double antibody).

[12] = tested on: A549 lung cancer cell line; experiment: CCK-8 proliferation inhibition; conditions: Homo sapiens, A549, 72 h, concentration of 30 μM
Source text: as §2, §3, §4, §5, §6, §7

[13] = tested on: MGC-803 gastric cancer cell line; experiment: CCK-8 proliferation inhibition; conditions: Homo sapiens, MGC-803, 72 h, concentration of 30 μM
Source text: as §2, §3, §4, §5, §6, §7

Which results are given for `COC(=O)c1sccc1NC(=O)[C@@H]1CC2(CC2)CN1C(=O)[C@H](CC1CCCC1)CN(O)C=O` [Example 34]?
inhibition at 30 µM ([1]; Table 5, read-out: Inhibition of proliferation, Colorectal cancer HCT116): ≥ 30%; inhibition at 30 µM ([1]; read-out: HCT116 inhibition rate/%): 36%; MIC (anti-bacterial activity) ([2]; strain MSSA 15-3): 1 µg/mL (≈ 2.09 µM); MIC (anti-bacterial activity) ([2]; strain MSSA 15-4): 1 µg/mL (≈ 2.09 µM); MIC (anti-bacterial activity) ([2]; strain MSSA 15-5): 1 µg/mL (≈ 2.09 µM); MIC (anti-bacterial activity) ([2]; strain MSSA 15-6): 1 µg/mL (≈ 2.09 µM); MIC (anti-bacterial activity) ([3]; strain MRSA 15-1): 1 µg/mL (≈ 2.09 µM); MIC (anti-bacterial activity) ([3]; strain MRSA 15-2): 1 µg/mL (≈ 2.09 µM); MIC (anti-bacterial activity) ([3]; strain MRSA 15-3): 1 µg/mL (≈ 2.09 µM); MIC (anti-bacterial activity) ([3]; strain MRSA 15-4): 0.5 µg/mL (≈ 1.05 µM); MIC (anti-bacterial activity) ([4]; strain SPN 16-2): 0.125 µg/mL (≈ 0.262 µM); MIC (anti-bacterial activity) ([4]; strain SPN 16-4): 4 µg/mL (≈ 8.38 µM); MIC (anti-bacterial activity) ([5]; strain ECO+ 15-1): 128 µg/mL (≈ 268 µM); MIC (anti-bacterial activity) ([5]; strain ECO+ 15-2): 128 µg/mL (≈ 268 µM); MIC (anti-bacterial activity) ([5]; strain ECO+ 15-3): 128 µg/mL (≈ 268 µM); MIC (anti-bacterial activity) ([5]; strain ECO+ 15-4): 128 µg/mL (≈ 268 µM); MIC (anti-bacterial activity) ([5]; strain ECO− 15-1): 128 µg/mL (≈ 268 µM); MIC (anti-bacterial activity) ([5]; strain ECO− 15-2): 128 µg/mL (≈ 268 µM); MIC (anti-bacterial activity) ([5]; strain ECO− 15-3): 128 µg/mL (≈ 268 µM); MIC (anti-bacterial activity) ([5]; strain ECO− 15-4): 128 µg/mL (≈ 268 µM); MIC (anti-bacterial activity) ([6]; strain MRSE 15-1): 0.25 µg/mL (≈ 0.523 µM); MIC (anti-bacterial activity) ([6]; strain MRSE 15-2): 4 µg/mL (≈ 8.38 µM); MIC (anti-bacterial activity) ([6]; strain MRSE 15-3): 4 µg/mL (≈ 8.38 µM); MIC (anti-bacterial activity) ([6]; strain MRSE 15-7): 4 µg/mL (≈ 8.38 µM); MIC (anti-bacterial activity) ([7]; strain EFM 15-1): 2 µg/mL (≈ 4.19 µM); MIC (anti-bacterial activity) ([7]; strain EFM 15-2): 2 µg/mL (≈ 4.19 µM); MIC (anti-bacterial activity) ([7]; strain EFM 15-3): 0.25 µg/mL (≈ 0.523 µM); MIC (anti-bacterial activity) ([7]; strain EFM 15-4): 4 µg/mL (≈ 8.38 µM); MIC (anti-bacterial activity) ([7]; strain EFM 15-5): 4 µg/mL (≈ 8.38 µM); MIC (anti-bacterial activity) ([7]; strain EFM 15-6): 4 µg/mL (≈ 8.38 µM); MIC (anti-bacterial activity) ([8]; strain MSSE 15-3): 4 µg/mL (≈ 8.38 µM); MIC (anti-bacterial activity) ([8]; strain MSSE 15-4): 4 µg/mL (≈ 8.38 µM); MIC (anti-bacterial activity) ([8]; strain MSSE 15-5): 4 µg/mL (≈ 8.38 µM); MIC (anti-bacterial activity) ([8]; strain MSSE 15-6): 1 µg/mL (≈ 2.09 µM); Anti-bacterial activity (MIC), strain BCA 14-10 ([9]; clinical isolate BCA 14-10): 2 µg/mL; MIC (anti-bacterial activity) ([9]; strain BCA 14-1): 4 µg/mL (≈ 8.38 µM); MIC (anti-bacterial activity) ([9]; strain BCA 14-4): 4 µg/mL (≈ 8.38 µM); MIC (anti-bacterial activity) ([9]; strain BCA 14-5): 1 µg/mL (≈ 2.09 µM); MIC (anti-bacterial activity) ([9]; strain BCA 14-6): 4 µg/mL (≈ 8.38 µM); MIC (anti-bacterial activity) ([9]; strain BCA 14-7): 2 µg/mL (≈ 4.19 µM); MIC (anti-bacterial activity) ([9]; strain BCA 14-8): 2 µg/mL (≈ 4.19 µM); MIC (anti-bacterial activity) ([10]; strain EFA 15-1): 4 µg/mL (≈ 8.38 µM); MIC (anti-bacterial activity) ([10]; strain EFA 15-2): 4 µg/mL (≈ 8.38 µM); MIC (anti-bacterial activity) ([10]; strain EFA 15-3): 2 µg/mL (≈ 4.19 µM); MIC (anti-bacterial activity) ([10]; strain EFA 15-4): 4 µg/mL (≈ 8.38 µM); MIC (anti-bacterial activity) ([10]; strain EFA 15-5): 4 µg/mL (≈ 8.38 µM); MIC (anti-bacterial activity) ([10]; strain EFA 15-6): 4 µg/mL (≈ 8.38 µM); MIC (anti-bacterial activity) ([10]; strain EFA 15-9): 4 µg/mL (≈ 8.38 µM); inhibition at 30 µM ([11]; Homo sapiens, Bel-7402, 72 h): > 50%; Inhibition of proliferation, Liver cancer BEL-7402 ([11]; 72 hours, 30 µM): 63%; inhibition at 30 µM [12]: 35%; inhibition at 30 µM [13]: 26%
